The results in this text go back to US20160368919A1, “NOVEL PYRIDINE PYRAZINONES AS BET-FAMILY BROMODOMAIN INHIBITORS” (Pfizer Inc., priority 2015, published 2016).

Entries after “also recorded” stand apart in the source; their conditions may differ.

Test [1] has as its target T1, BRD4 BD1 (Homo sapiens, UniProt O60885).
T1 construct: His-tagged BRD4 BD1 (44-160); made in house
As to the kind of experiment: BRD4 BD1 Fluorescence Polarization (FP) competition binding assay. The following applies: BRD4 BD1 40 nM, probe PFI-411FP 2 nM. The procedure, abridged: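 BRD4 BD1 (40 nM) preincubated 15 min at 20° C. with compound (120 to 0.0012 μM) in HEPES pH 7.4 with 0.08% BSA, then 2 nM PFI-411FP tracer added for 60 min. Fluorescence polarization read (ex 620/em 688 nm); IC50 from four-parameter fit, converted to Ki via Nikolovska-Coleska equation.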

The subject of test [2] is OPM-2 cells. Briefly: OPM-2 cell proliferation assay (CellTiter-Glo). Format: cell-based. The method, then:
MM1.S (dexamethasone sensitive) and OPM-2 cells were purchased from ATCC and maintained in RPMI-1640 medium with 10% fetal bovine serum at 37 degrees, 5% CO2. Cells were seeded at 10,000 cells/well in 100 uL medium. The following day compounds or control vehicle (DMSO) were added at indicated concentrations in 10 ul volume. Compound treated OPM-2 cells and MM1.S cell were analyzed for cell density at 72h and 96h, respectively, using CellTiter-Glo® (CTG) reagent (Promega). The CTG assay measures the amount of ATP present, which indicates the number of viable cells in culture.
A general note: ATP-based viability assays read luminescence as a measure of living cells.

Test [3] relates to c-MYC and MYB expression in MM1.S cells. As to the kind of experiment: Biomarker analysis in MM1.S cells (RT-PCR, Western blot). Format: cell-based. The method, then: MM1.S cells (1,000,000 cells) were seeded in […] in 10 mL medium. On the following day cells were treated with indicated compounds for 0, 2, 4, 6, 8, 16, and 24 hours. Cells were collected, washed in PBS, and split for western blot and RNA analysis. For western blot, cells were lysed in RIPA buffer and 30 ug protein was loaded on a 4-12% bis-tris gel under denaturing conditions and transferred to nitrocellulose. Blots were probed with primary antibodies for c-MYC (Cell Signaling #9402) and GAPDH (Cell Signaling #2118) diluted at 1:1000 and then secondary antibodies anti-mouse 680 (LiCor) and anti-rabbit 800 (Licor) and imaged on a LiCor reader. For gene expression analysis, total RNA was prepared using Qiagen total RNA kit (Qiagen) and cDNA was prepared from 100 ng RNA (high capacity cDNA kit; Applied Biosystems). Relative gene expression was analyzed on an Applied Biosystem 7900 qPCR thermocycler using gene expression assays for MYC (Hs00153408_m1), MYB (Hs00920556_m1), and GAPDH (Hs02758991_g1). Relative gene expression is calculated relative to DMSO and normalized to GAPDH expression.
A general note: In western blotting, separated proteins are transferred to a membrane and probed.

Test [4] relates to HCC2429 cells. Briefly: NMC HCC2429 cell proliferation assay (CellTiter-Glo). The format is cell-based. The following applies: Homo sapiens; HCC2429, CTG at 96h. The method, then: NMC HCC2429 Cell Proliferation Assay • HCC2429 cells were plated into a 96-well plate (10,000 cells/well). Compounds or control vehicle (DMSO) were added at indicated concentrations. Compound-treated HCC2429 cells were analyzed for cell density at 96h using CellTiter-Glo® (CTG) reagent (Promega).

Test [5] concerns MYC, SOX2, involucrin and Keratin 14 expression in HCC2429 cells. As to the kind of experiment: Biomarker analysis in HCC2429 cells (RT-PCR, Western blot). Format: cell-based. The method, then:
HCC2429 cells were plated into a 6-well plate (250,000 cells/well). Cells were treated with compounds or control vehicle (DMSO) at the indicated concentrations for 72 hrs. Cells were collected, washed in PBS, and split for western blot and RNA analysis.

Test [6] concerns LnCaP cells, AR(+). As to the kind of experiment: CRPC cell proliferation assay (CellTiter-Glo), LnCaP. Format: cell-based. To be noted: CTG at 96h. The protocol: (§1) Castrate-Resistant Prostate Cancer (CRPC) Cell Proliferation Assay • Cells were seeded into 96-well plates at 2,000-10,000 cells/well in 100 uL medium. Four AR(+) cell lines (LnCaP, C4-2 (parental), C4-2AR-WT and C4-2AR—F876L) and one AR(−) cell line (DU-145) were studied. Compound treated cells were analyzed for cell density at 96h, using CellTiter-Glo® (CTG) reagent (Promega).

In test [7] the test system is C4-2AR-WT cells, AR(+). Briefly: CRPC cell proliferation assay (CellTiter-Glo), C4-2AR-WT. Format: cell-based. To be noted: CTG at 96h. The method, then: as §1
In test [8] the test system is CRPC cell lines (LnCaP, C4-2, C4-2AR-WT, C4-2AR-F876L, DU-145). Briefly: CRPC cell proliferation assay, summary over the cell lines. The following applies: AR(+) cell lines, CTG at 96h. Format: cell-based. The protocol:
Castrate-Resistant Prostate Cancer (CRPC) Cell Proliferation Assay • Cells were seeded into 96-well plates at 2,000-10,000 cells/well in 100 uL medium. Four AR(+) cell lines (LnCaP, C4-2 (parental), C4-2AR-WT and C4-2AR—F876L) and one AR(−) cell line (DU-145) were studied. Compound treated cells were analyzed for cell density at 96h, using CellTiter-Glo® (CTG) reagent (Promega). […] Example 10 and IBET-151 BET had submicromolar IC50 values in the AR(+) cell lines. The inhibitors maintained potency in C4-2 cells engineered to express wild type (WT) AR receptor (C4-2-AR-WT), as well as cells engineered to express the F876L mutation (C4-2-AR-F876L) that confers resistance to androgen receptor (AR) antagonists.

[9] abbreviates: 0.5 uM, RT-PCR time-course 2 to 24 hours.
Where [10] appears, read: HCC2429, Western blot, 72 hrs, concentration-dependent.

As a reminder, the IC50 is the concentration at which inhibition is half-maximal. Higher therefore signals a need for much substance. Consider `CCC(=O)N(C)c1ccc2nc(NCCC(=O)O)c(=O)n([C@@H](CC)c3ccccc3)c2n1` [Example 10, N-{6-[methyl(propanoyl)amino]-3-oxo-4-[(1S)-1-phenylpropyl]-3,4-dihydropyrido[2,3-b]pyrazin-2-yl}-beta-alanine], for which the concentration for half-maximal inhibition (IC50) in test [1] is 62.2 nM; in test [2] (Homo sapiens, OPM-2, CTG at 72h) it was 6 nM; in test [4] it was 47 nM; in test [6] (Homo sapiens) it was 320 nM; in test [7] it was 500 nM. Moreover, the “inhibition of proliferation of OPM-2 cells” value in test [2] (dose dependent manner, FIG. 1.B) is given as “inhibited proliferation”. Besides, the “expression of c-MYC mRNA relative to GAPDH” value in test [3] (setting [9]) is on record as “strongly down-regulated; also recorded: down-regulated”. Besides, the “relative expression of MYB mRNA” value in test [3] (setting [9]) is listed as “down-regulated”. Further, the “relative expression of c-MYC protein” value in test [3] (Western blot, 2, 4, 6, 8, 16 and 24 hours) is listed as “down-regulated”. For the same compound, the “mRNA expression of involucrin” value in test [5] (HCC2429, RT-PCR, 72 hours, 50 nM, 200 nM and 500 nM, dose dependent) was “increased”. Further, the MYC protein level entry in test [5] (setting [10]) is “down-regulated”. Moreover, in test [5] (setting [10]), the SOX2 protein level result is on record as “down-regulated”. Besides, the “Max % Inh” value in test [6] is listed as 69%; in test [7], 85%. Further, in test [8], the “IC50 values in the AR(+) cell lines” value was “submicromolar”.
